# From patent publication US20210369595A1, “Cosmetic composition comprising an aqueous extract of rose fruit” (L V M H RECHERCHE, priority 2018, published 2021)
# What was measured:
# [1] = test system: Collagen 3 (COL3A1); assay: TLDA gene expression in NHF: COL3A1; type: cell-based, human
# Experimental: (§1) The cell culture medium is removed and 250 μL of RLT lysis buffer (provided in the Nucleospin RNA trace kit, Macherey-Nagel) is added. The cells are scraped with a Cell Scraper and then the cell lysate is recovered in a 1.2 mL deepwell (provided in the Nucleospin RNA kit). The total RNAs are extracted according to the defined protocols.
# (§2) The total RNA solutions obtained are assayed, and their quality checked, using a microplate reader, the spectrostarNANO (BMG Labtech) coupled to the MicrolabSTAR. This apparatus is connected to the computer controlling the Robotics platform and has the specific software for the analysis of the results (MARS software). The technique requires a 384-well microplate (LoBase), a positive control (RNA 250, AM7155, Thermofisher) to validate the pipetting performed by the robot as well as the values generated by the spectrostarNANO reader. • Synthesis of complementary DNA […]
# (§3) Real-time quantitative PCR can be exploited if its efficiency is between 90% and 110%. For each sample, the number of cycles at which the signal appears is determined by the SDS 2.3 software. […]
# (§4) In the TLDA RT-PCR method, quantification is performed using the comparative method of ΔΔCt. The relative quantification (RQ) values obtained correspond to the amplitude level (x times more or less than the control) of the expression compared with our control, here the non-irradiated. […]
# [2] = test system: Lysyl oxidase like 1 (LOXL1); assay: TLDA gene expression in NHF: LOXL1; type: cell-based, human; settings: Vit C 50 μg/mL (positive control), control = 1
# Experimental: as §1, §2, §3, §4
# [3] = test system: Procollagen C endopeptidase enhancer (PCOLCE); assay: TLDA gene expression in NHF: PCOLCE; type: cell-based, human; settings: Vit C 50 μg/mL (positive control), control = 1
# Experimental: as §1, §2, §3, §4
# [4] = test system: Emilin 1 (Emilin1); assay: TLDA gene expression in NHF: Emilin1; type: cell-based, human
# Experimental: as §1, §2, §3, §4
# [5] = test system: Matrix Metalloproteinase 3 (MMP3); assay: TLDA gene expression in NHF: MMP3; type: cell-based, human; settings: Vit C 50 μg/mL (positive control), control = 1
# Experimental: as §1, §2, §3, §4
# [6] = test system: Elastin (ELN); assay: TLDA gene expression in NHF: ELN; type: cell-based, human; settings: Vit C 50 μg/mL (positive control), control = 1
# Experimental: as §1, §2, §3, §4
# [7] = test system: Collagen 5 (COL5A1); assay: TLDA gene expression in NHF: COL5A1; type: cell-based, human
# Experimental: as §1, §2, §3, §4
# [8] = test system: Collagen 1 (COL1A1); assay: TLDA gene expression in normal human fibroblasts (NHF): COL1A1; type: cell-based
# Experimental: as §1, §2, §3, §4
# [9] = test system: Fibrillin 1 (FBN1); assay: TLDA gene expression in NHF: FBN1; type: cell-based, human; settings: Vit C 50 μg/mL (positive control), control = 1
# Experimental: as §1, §2, §3, §4
# [10] = Vit C 50 μg/mL (positive control), control = 1
compound,measurement,setting,value
O=C1O[C@H]([C@@H](O)CO)C(O)=C1O [Vit C],"COL3A1 expression, RQ",[1]; [10],2.599
same,increase of Collagen 3 expression,[1]; Vit C (50 μg/mL),+160%
same,"LOXL1 expression, RQ",[2],1.202
same,"PCOLCE expression, RQ",[3],1.156
same,"Emilin1 expression, RQ",[4]; [10],2.509
same,increase of Emilin 1 expression,[4]; Vit C (50 μg/mL),+151%
same,"MMP3 expression, RQ",[5],1.205
same,"ELN expression, RQ",[6],1.016
same,"COL5A1 expression, RQ",[7]; [10],1.911
same,increase of Collagen 5 expression,[7]; Vit C (50 μg/mL),+91%
same,"COL1A1 expression, RQ",[8]; [10],3.471
same,increase of Collagen 1 expression,[8]; Vit C (50 μg/mL),+247%
same,"FBN1 expression, RQ",[9],0.989
